According to patent publication US20190224222A1, “METHOD OF INHIBITING QUORUM SENSING USING D-GALACTOSE” (Seoul National University R&DB Foundation, priority 2014, published 2019):

Assays:
[1] = test system: P. gingivalis (Pg) biofilm; assay: Pg biofilm formation induced by Fn AI-2, fluorescence staining (confocal); assay type: cell-based, P. gingivalis (ATCC 33277); conditions: D-gal 200 mM vs furanone 20 μM
Procedure: Further, inhibitory effects of D-gal on Pg biofilm formation induced by Fn AI-2 were examined by fluorescence staining. 2 ml of Pg culture broth (the number of bacteria: 4×10^8/ml) was used, and Fn AI-2 was used in a volume of 10% (v/v) with respect to the total volume of a mixture with Pg culture broth. 200 mM of D-gal was used, and for comparison, the same test was performed using 20 μM of the furanone compound, instead of D-gal. Biofilms formed on the cover slip were stained with fluorescent materials using the live/dead-BacLight viability kit (Invitrogen, Grand Island, N.Y., USA) and observed using a confocal microscope (Carl Zeiss, LSM 700). […] Fluorescence intensities of the obtained individual fluorescence images were quantified using ZEN 2010 program of a confocal microscope, and shown in FIG. 6.

[2] = test system: P. gingivalis (Pg) biofilm; assay: Pg biofilm formation induced by Fn AI-2, crystal violet staining; assay type: cell-based, P. gingivalis (ATCC 33277)
Procedure: To test biofilm formation by Pg, a test was performed in the same manner as in Example 3. That is, a Pg culture broth (2 ml; negative control group, the number of bacteria: 4×10^8/ml), a mixture of Pg culture broth (2 ml) and Fn AI-2 (10% (v/v) with respect to the total volume of the mixture with Pg culture broth), or a mixture of Pg culture broth (2 ml) and Fn AI-2 (10% (v/v) with respect to the total volume of the mixture with Fn culture broth) and D-gal (2 mM) was added to a 24-well plate with a glass slip (round, 12 mm radius), and cultured under anaerobic conditions for 48˜72 hours. For comparison, 2 μM of the furanone compound [(5Z)-4-bromo-5-(bromomethylene)-2(5H)-furanone] was used instead of D-gal (2 mM) to perform the same test.
Biofilms formed on the cover slips were stained with 10% crystal violet [Tris(4-(dimethylamino)phenyl)methylium chloride] for 10 minutes, washed three times with PBS, and destained with 1 ml of acetone-alcohol (20:80, vol/vol). The optical density at 590 nm of the destaining solution containing crystal violet was measured using a microplate reader (a Wallac Victor3 microtiter, PerkinElmer Life Sciences, Waltham, Mass.). The smaller optical density (OD590) measured at 590 nm represents more inhibition of biofilm formation, that is, higher quorum sensing inhibitory effect of the used QSI candidate.

F. nucleatum = assay: Effect on bacterial growth of F. nucleatum (OD 600 nm); assay type: cell-based; conditions: D-galactose 100 mM, 37° C., anaerobic, 24-48 hours, vs control 0 mM
Procedure: In detail, F. nucleatum was cultured in the presence of 0 mM (control group) and 100 mM of D-galactose at 37° C. under anaerobic conditions for 24-48 hours, and then optical density at 600 nm was determined to measure cell growth.

## O=C[C@H](O)[C@@H](O)[C@@H](O)[C@H](O)CO [D-gal, D-galactose]
[1]
  inhibitory effect on Pg biofilm formation, in words: equivalent to that of the furanone compound
[2]; Pg + Fn AI-2 10% (v/v), D-gal 2 mM, 48-72 h, Pg/AI-2 control 2.00, Pg 0.66
  OD590 nm: 1.24
[2]; crystal violet, D-gal 2 mM vs furanone 2 μM
  inhibitory effect on Pg biofilm formation, in words: equivalent to that of the furanone compound
F. nucleatum
  effect on bacterial growth (cell growth curve, OD 600 nm), in words: does not affect bacterial growth
